From patent US20250195503A1, “TETRACYCLIC COMPOUND AND USE THEREOF” (SHANGHAI SHIJIANG BIOTECHNOLOGY TECHNOLOGY CO., LTD., priority 2022, published 2025)

Columns and labels:
[1] = tested on: sh-DNMT1 NCI-H82 cell; assay: Inhibitory effect (IC50) on sh-DNMT1 NCI-H82 cell, Promega CellTiter-Glo kit; assay type: cell-based; conditions: Homo sapiens, DNMT1 knocked down NCI-H82 cell
[2] = tested on: Con-NCI-H82 cell; assay: Inhibitory effect (IC50) on Con-NCI-H82 cell, Promega CellTiter-Glo kit; assay type: cell-based; conditions: Homo sapiens, NCI-H82 cell transfected with empty virus vector
[3] = tested on: mPTP-active Daoy cell; assay: Inhibitory effect (IC50) on mPTP-active Daoy cell, Promega CellTiter-Glo kit; assay type: cell-based; conditions: Homo sapiens, Daoy cell transfected with empty virus vector without PPIF shRNA
[4] = tested on: mPTP-inactive Daoy cell; assay: Inhibitory effect (IC50) on mPTP-inactive Daoy cell (PPIF shRNA), Promega CellTiter-Glo kit; assay type: cell-based; conditions: Homo sapiens, Daoy cell transfected with virus vector carrying PPIF shRNA
[5] = tested on: ov-NNMT NCI-H82 cell; assay: Inhibitory effect (IC50) on ov-NNMT NCI-H82 cell, Promega CellTiter-Glo kit; assay type: cell-based; conditions: Homo sapiens, NNMT protein overexpressed NCI-H82 cell
[6] = tested on: Daoy cell transfected with empty virus vector without carrying shRNA; assay: Mitochondria membrane potential difference by TMRM in Daoy cell transfected with empty virus vector; assay type: cell-based, human; conditions: CsA −, H2O2 +
[7] = tested on: Daoy cell transfected with virus vector carrying shRNA that could specificly induce the degradation of PPIF mRNA; assay: Mitochondria membrane potential difference by TMRM in Daoy cell transfected with virus vector carrying PPIF shRNA; assay type: cell-based, human; conditions: CsA −, H2O2 +
[8] = tested on: Daoy cell; assay: Mitochondria membrane potential difference by TMRM in Daoy cell; assay type: cell-based, human; conditions: CsA −, H2O2 +
Source text: The mitochondria permeability transition pore (mPTP) was a non-specific channel on the inner membrane of mitochondria, which could allow small molecules with molecular less than 1.5KD to pass freely, and its activity was affected by peroxides (such as H2O2), pH and calcium ions in mitochondria. […] For cells with active mitochondria permeability transition pore, adding peroxide (such as H2O2) could increase the activity of mitochondria permeability transition pore, resulting in a decrease in mitochondria membrane potential.

SMILES	IC50 [1] [µM]	IC50 [2] [µM]	IC50 [5] [µM]	IC50 [3] [µM]	IC50 [4] [µM]	Relative TMRM signal intensity (%), mean value [6] [%]	Relative TMRM signal intensity (%), mean value [7] [%]	Relative TMRM signal intensity (%), mean value [8] [%]
CCCCC1c2c(ccc(OC)c2OC)C=C2c3cc4c(cc3CCN21)OCO4 (stereo not shown) [compound AB31875]	12.3	3.27	10.1	14.6	6.25	–	–	–
COc1ccc2c(c1OC)C(C1CCCCC1)N1CCc3cc4c(cc3C1=C2)OCO4 (stereo not shown) [compound AB31893]	–	–	–	5.14	2.5	–	–	–
COc1ccc2c(c1OC)C(C)N1CCc3cc4c(cc3C1=C2)OCO4 (stereo not shown) [compound AB31886]	9.66	3.22	8.48	14.3	5.74	–	–	–
C=CCCC1c2c(ccc(OC)c2OC)C=C2c3cc4c(cc3CCN21)OCO4 (stereo not shown) [compound AB31882]	18.8	5.16	11.6	19.3	9.22	–	–	–
COc1ccc2c(c1OC)CN1CCc3cc4c(cc3C1=C2)OCO4 [compound AB31713]	14.6	–	–	25	12.5	–	–	–
OO [H2O2]	–	–	–	–	–	79	95	82
COc1ccc2c(c1OC)C(C(Cl)(Cl)Cl)N1CCc3cc4c(cc3C1=C2)OCO4 (stereo not shown) [compound AB31714]	14.3	2.33	7.04	26.7	12.5	–	–	–
COc1ccc2c(c1OC)C(C(F)(F)F)N1CCc3cc4c(cc3C1=C2)OCO4 (stereo not shown) [compound AB35403]	24.2	6.91	16.8	60.1	28.6	–	–	–

Second part, led by results:

IC50 [1] [µM]	IC50 [2] [µM]	IC50 [5] [µM]	SMILES	IC50 [3] [µM]	IC50 [4] [µM]	Relative TMRM signal intensity (%), mean value [6] [%]	Relative TMRM signal intensity (%), mean value [7] [%]	Relative TMRM signal intensity (%), mean value [8] [%]
6.58	–	–	COc1ccc2c(c1OC)C(C1CCCC1)N1CCc3cc4c(cc3C1=C2)OCO4 (stereo not shown) [compound AB31900]	5.37	2.56	–	–	–
5.73	2.06	6.55	C=CCC1c2c(ccc(OC)c2OC)C=C2c3cc4c(cc3CCN21)OCO4 (stereo not shown) [compound AB31891]	6.22	3.12	–	–	–
8.64	2.31	6.32	CCCC1c2c(ccc(OC)c2OC)C=C2c3cc4c(cc3CCN21)OCO4 (stereo not shown) [compound AB31884]	5.76	2.71	–	–	–
3.65	0.72	2.66	CCCCCCC1c2c(ccc(OC)c2OC)C=C2c3cc4c(cc3CCN21)OCO4 (stereo not shown) [compound AB35435]	1.32	0.69	–	–	–
5.98	2.18	5.56	CCC1c2c(ccc(OC)c2OC)C=C2c3cc4c(cc3CCN21)OCO4 (stereo not shown) [compound AB31883]	5.64	2.45	–	–	–
5.99	1.12	4.13	COc1ccc2c(c1OC)C(C(C)C)N1CCc3cc4c(cc3C1=C2)OCO4 (stereo not shown) [compound AB31885]	6.43	3.17	–	–	–
